In assay [1] the test system is A2780 ovarian cancer cells. Briefly: Molecular screening of compounds on A2780 cell proliferation (resazurin fluorescence). It is filed as cell-based, human. Particulars: A2780 cells cultured 3 days, N/A = ambiguous curve fits or EC50 greater than the highest concentration tested (25 μM), read-out: EC5 - A2780 ovarian cancer cells. How it is done: Cell proliferation assays—Cells were plated in 96-well plates. Compounds were added the next morning, and cell proliferation was measured 48 hrs later with the […] 96 MTS assay (Promega) according to the manufacturer's instructions. Molecular screening of compounds on A2780 cells was performed by adding compounds the morning after plating in 384-well plates and measuring proliferation 72 hrs later with resazurin fluorescence. Normalized percent inhibition (NPI) was calculated with respect to fluorescence values obtained with DMSO negative control and doxorubicin (5 μM) positive control as NPI=100%*(DMSO−compound)/(DMSO−doxorubicin). TCR ligation of human CD8 T cells
(§1) EC50 values were calculated from normalized percent inhibition data using non-linear curve fitting in PRISM software.
A general note: The colour change of resazurin is a common sign of viable cells or microbes.

The test system of assay [2] is human T cells. Description: ConA-induced activation and expansion of human T cells (high-throughput screen). Particulars: human T cells activated with ConA for 7 days, N/A = ambiguous curve fits or EC50 greater than the highest concentration tested (25 μM). It is filed as cell-based. How it is done:
T cell stimulation—For human T cell proliferation assays, peripheral blood lymphocytes were obtained by leukapheresis/elutriation and Miltenyi bead-purified and K562 cells expressing human CD32 were generated as previously described^41. […] PBMCs were labeled with CELLTRACE Violet stain (Invitrogen) according to the manufacturer's instructions and cocultured with loaded K32 cells at a 10:1 T cells:K32 ratio or activated with ConA (2 μg/ml, Sigma). Proliferation of stimulated T cells was determined 7 days later by FACS and Division Index was calculated using FlowJo software.
as §1

The subject of assay [3] is human T cells. Description: aAPC (anti-CD3/anti-CD28)-induced human T cell proliferation, CELLTRACE
Format: cell-based. Particulars: 7 days. Here is the method: Four plots show proliferation of CD8 cells after 7 days is shown. […] Proliferation of CD8 cells after 7 days is shown. T cell stimulation-For human T cell proliferation assays, peripheral blood lymphocytes were obtained by leukapheresis/elutriation and Miltenyi bead-purified and K562 cells expressing human CD32 were generated as previously described^41. […] were γ-irradiated (100 Gy) and loaded with anti-CD3 (500 ng/ml, clone OKT3; eBioscience) plus anti-CD28 (500 ng/ml, clone 15E8; EMD Millipore) antibodies at room temperature for 10 minutes. PBMCs were labeled with CELLTRACE Violet stain (Invitrogen) according to the manufacturer's instructions and cocultured with loaded […] cells at a 10:1 T cells:[…] ratio or activated with ConA (2 μg/ml, Sigma). Proliferation of stimulated T cells was determined 7 days later by FACS and Division Index was calculated using FlowJo software.

Assay [4] concerns human T cells. Description: Cytokine rescue of human T cell proliferation from MEK inhibition. Format: cell-based. Particulars: GDC0973 or trametinib. How it is done:
Proliferation of CD8 T cells after 7 days is shown.
FIG. 2D is a graph showing that human PBMCs were activated as in FIG. 2B with the indicated compounds, BKM120=2 μM.
Reported are percentages of cells that proliferated with GDC0973 relative to vehicle treatment with the same cytokines after 7 days. Stains are not depicted.
T cell stimulation—For human T cell proliferation assays, peripheral blood lymphocytes were obtained by leukapheresis/elutriation and Miltenyi bead-purified and K562 cells expressing human CD32 were generated as previously described^41. K32 were γ-irradiated (100 Gy) and loaded with anti-CD3 (500 ng/ml, clone OKT3; eBioscience) plus anti-CD28 (500 ng/ml, clone 15E8; EMD Millipore) antibodies at room temperature for 10 minutes. PBMCs were labeled with CELLTRACE Violet stain (Invitrogen) according to the manufacturer's instructions and cocultured with loaded K32 cells at a 10:1 T cells:K32 ratio or activated with ConA (2 μg/ml, Sigma). Proliferation of stimulated T cells was determined 7 days later by FACS and Division Index was calculated using FlowJo software.

Like-named read-outs stand apart in the source and are kept apart here.

On to `CC(C)(C)c1cc(C=C(C#N)C#N)cc(Br)c1O` [AG1024], for which the EC50 in assay [1] stood at 21300 nM; in the assay on human T cells [2], 9830 nM. Regarding `Cc1cn(-c2cc(NC(=O)c3ccc(C)c(Nc4nccc(-c5cccnc5)n4)c3)cc(C(F)(F)F)c2)cn1` [AMN107], the EC50 in assay [1] (Homo sapiens, 72 h) turned out to be 19100 nM; in the assay with human T cells [2] (T-cell, 168 h), 2480 nM.

In the assay on human T cells [2] (T-cell, 168 h), `CN1CCN(CCOc2cc(OC3CCOCC3)c3c(Nc4c(Cl)ccc5c4OCO5)ncnc3c2)CC1` [AZD0530 (saracatinib), saracatinib] came in with an EC50 of 422 nM.

Consider `CCN(CCCOc1ccc2c(Nc3cc(CC(=O)Nc4cccc(F)c4)n[nH]3)ncnc2c1)CCOP(=O)(O)O` [AZD1152], for which the EC50 in the assay on human T cells [2] (T-cell, 168 h) came out at 92.1 nM. Turning to `Cn1cnc2c(F)c(Nc3ccc(Br)cc3Cl)c(C(=O)NOCCO)cc21` [AZD6244 (selumetinib), selumetinib], the EC50 with human T cells [2] (T-cell, 168 h) was found to be 24500 nM. On the same count and under the same terms, for `Cc1cc([C@@H](C)Nc2ccccc2C(=O)O)c2nc(N3CCOCC3)cc(=O)n2c1` [AZD6482] the value was 962 nM. Consider `Nc1cc(C(F)(F)F)c(-c2cc(N3CCOCC3)nc(N3CCOCC3)n2)cn1` [BKM120], for which the EC50 in assay [1] (Homo sapiens, 72 h) stood at 11500 nM; in the assay with human T cells [2] (T-cell, 168 h) it was 239 nM. In addition, the “proliferation of human T cells in response to aAPC coated with agonistic CD3 and CD28 antibodies” value with human T cells [3] was “restricted the proliferation”. For `CS(=O)(=O)N1CCN(Cc2cc3nc(-c4cccc5[nH]ncc45)nc(N4CCOCC4)c3s2)CC1` [GDC0941], the EC50 in assay [1] (Homo sapiens, 72 h) was 1540 nM. As to `O=C(c1ccc(F)c(F)c1Nc1ccc(I)cc1F)N1CC(O)([C@@H]2CCCCN2)C1` [GDC0973], the EC50 came to 9040 nM in assay [1] (Homo sapiens, 72 h) and 4.35 nM in the assay on human T cells [2] (T-cell, 168 h). Besides, the “proliferation of human T cells in response to aAPC coated with agonistic CD3 and CD28 antibodies” value with human T cells [3] is “restricted the proliferation”.

Turning to `CC(C)(C)c1nc(-c2cccc(NS(=O)(=O)c3c(F)cccc3F)c2F)c(-c2ccnc(N)n2)s1` [GSK436 (dabrafenib), dabrafenib], the EC50 in assay [1] (Homo sapiens, 72 h) is 11400 nM; in the assay on human T cells [2] (T-cell, 168 h), 1280 nM.

Regarding `CCc1cc(Nc2nccc(-c3c(-c4ccc(OC)c(C(=O)Nc5c(F)cccc5F)c4)nc4ccccn34)n2)c(OC)cc1N1CCC(N2CCN(S(C)(=O)=O)CC2)CC1` [GSK1904529], in the assay on human T cells [2], the EC50 amounted to 13900 nM. For the molecule `COc1ncc(-c2ccc3nccc(-c4ccnnc4)c3c2)cc1NS(=O)(=O)c1ccc(F)cc1F` [GSK2126458], the EC50 in assay [1] was found to be 155 nM; in the assay with human T cells [2] it was 0.237 nM. The like results for `Cn1ncc(Cl)c1-c1cc(C(=O)N[C@H](CN)Cc2ccc(F)c(F)c2)oc1Cl` [GSK2141795] were, in that order, 2350 nM and 96 nM. Take `CC(C)n1nc(-c2ccc3oc(N)nc3c2)c2c(N)ncnc21` [INK128]: the EC50 was found to be 257 nM in assay [1] (Homo sapiens, 72 h) and 18.4 nM in the assay on human T cells [2] (T-cell, 168 h). With `Cc1[nH]c2ccccc2c1CCNCc1ccc(/C=C/C(=O)NO)cc1` [LBH589], in assay [1] (Homo sapiens, 72 h), the EC50 was determined as 3610 nM. In the case of `Cc1c(C(=O)Nc2ccc(N3C[C@@H](C)O[C@@H](C)C3)nc2)cccc1-c1ccc(OC(F)(F)F)cc1` [LDE225], the EC50 in assay [1] (Homo sapiens, 72 h) was found to be 8480 nM; with human T cells [2] (T-cell, 168 h), 3570 nM. On to `CN(C)C(=O)c1cc2cnc(Nc3ccc(N4CCNCC4)cn3)nc2n1C1CCCC1` [LEE011], for which, in the assay with human T cells [2] (T-cell, 168 h), the EC50 turned out to be 2930 nM.

For `Cc1cc(-c2ncc(CC(=O)Nc3ccc(-c4cnccn4)cn3)cc2C)ccn1` [LGK974], the EC50 in assay [1] (Homo sapiens, 72 h) was 24400 nM; in the assay with human T cells [2] (T-cell, 168 h), 9030 nM. Taken in the same sequence, the figures for `O=c1cc(N2CCOCC2)oc2c(-c3ccccc3)cccc12` [LY294002] were 17200 nM and 2690 nM. `NC1(c2ccc(-c3nc4ccn5c(=O)[nH]nc5c4cc3-c3ccccc3)cc2)CCC1` [MK2206]: the EC50 came to 8750 nM in assay [1] (Homo sapiens, 72 h) and 446 nM with human T cells [2] (T-cell, 168 h). `COc1cc(Nc2ncc3c(n2)-c2ccc(Cl)cc2C(c2c(F)cccc2OC)=NC3)ccc1C(=O)O` [MLN8237]: the EC50 with human T cells [2] (T-cell, 168 h) was 86.8 nM. For the molecule `COc1cccc2cc(-c3nc([C@H]4CC[C@H](C(=O)O)CC4)n4ncnc(N)c34)[nH]c12` [OSI027], the EC50 in assay [1] (Homo sapiens, 72 h) was determined as 5880 nM; in the assay with human T cells [2] (T-cell, 168 h), 311 nM. As for `CC(=O)c1c(C)c2cnc(Nc3ccc(N4CCNCC4)cn3)nc2n(C2CCCC2)c1=O` [PD0332991], the EC50 in assay [1] (Homo sapiens, 72 h) is 5210 nM. In turn, `CCCS(=O)(=O)Nc1ccc(F)c(C(=O)c2c[nH]c3ncc(-c4ccc(Cl)cc4)cc23)c1F` [PLX4032 (vemurafenib), vemurafenib] displayed an EC50 in the assay on human T cells [2] (T-cell, 168 h) of 5260 nM. `C=CCN(/C=C1/C(=O)O[C@H](COC)[C@@]2(C)C1=C(O)C(=O)C1=C2[C@H](OC(C)=O)C[C@]2(C)C(=O)CC[C@@H]12)CC=C` [PX-866] showed an EC50 with human T cells [2] of 1200 nM. Regarding `Cn1c(Nc2ccc(C(F)(F)F)cc2)nc2cc(Oc3ccnc(-c4ncc(C(F)(F)F)[nH]4)c3)ccc21` [RAF265], the EC50 in assay [1] (Homo sapiens, 72 h) was 5630 nM; in the assay with human T cells [2] (T-cell, 168 h) it was 128 nM. For the molecule `CO[C@H]1C[C@@H]2CC[C@@H](C)[C@@](O)(O2)C(=O)C(=O)N2CCCC[C@H]2C(=O)O[C@H]([C@H](C)C[C@@H]2CC[C@@H](O)[C@H](OC)C2)CC(=O)[C@H](C)/C=C(\C)[C@@H](O)[C@@H](OC)C(=O)[C@H](C)C[C@H](C)/C=C/C=C/C=C/1C` [Rapamycin], in the assay with human T cells [2] (T-cell, 168 h), the EC50 came out at 4.03 nM. As to `O=C(Nc1ccc2[nH]nc(-c3ccncc3)c2c1)[C@@H]1CCN(CC(=O)N2CCN(c3ccc(-c4ncccn4)cc3)CC2)C1` [SCH772984], the EC50 came to 7640 nM in assay [1] (Homo sapiens, 72 h) and 22.2 nM in the assay on human T cells [2] (T-cell, 168 h). Taken in the same sequence, the figures for `O=C(Nc1cccc(Cl)c1)Nc1ncc(CCNc2ncnc3ccsc23)s1` [SNS314] were 5830 nM and 72.9 nM. Turning to `COc1ccc(C2=N[C@@H](c3ccc(Cl)cc3)[C@@H](c3ccc(Cl)cc3)N2C(=O)N2CCNC(=O)C2)c(OC(C)C)c1` [nutlin-3a], the results for the EC50 (in assay [1]; in the assay with human T cells [2]) were 16800 nM and 1130 nM, respectively. Regarding `COC1=CC(c2cc3ccccc3[nH]2)=N/C1=C\c1[nH]c(C)cc1C` [obatoclax], the EC50 in assay [1] (Homo sapiens, 72 h) was 1110 nM; with human T cells [2] (T-cell, 168 h) it was 56.7 nM. Turning to “IL-21: cytokine tested for rescue of T cell expansion from MEK inhibition”, the “rescue of T cell proliferation in the presence of the MEK inhibitors” value (shortened to “rescue … of the MEK inhibitors”) in the assay on human T cells [4] is listed as “no effect”.

B1: IL-7: recombinant mouse IL-7 (Peprotech) (protein, UniProt P10168 26-154, looked up)
Interleukin-7: ECHIKDKEGKAYESVLMISIDELDKMTGTDSNCPNNEPNFFRKHVCDDTKEAAFLNRAARKLKQFLKMNISEEFNVHLLTVSQGTQTLVNCTSKEEKNVKEQKKNDACFLKRLLREIKTCWNKILKGSI
Take B1: the “rescue … of the MEK inhibitors” value in the assay with human T cells [4] is listed as “able to rescue T cell proliferation”.

B2: IL-27: cytokine tested for rescue of T cell expansion from MEK inhibition (protein, UniProt Q8NEV9 29-243; Q14213 21-229, looked up)
Interleukin-27 subunit alpha: FPRPPGRPQLSLQELRREFTVSLHLARKLLSEVRGQAHRFAESHLPGVNLYLLPLGEQLPDVSLTFQAWRRLSDPERLCFISTTLQPFHALLGGLGTQGRWTNMERMQLWAMRLDLRDLQRHLRFQVLAAGFNLPEEEEEEEEEEEEERKGLLPGALGSALQGPAQVSWPQLLSTYRLLHSLELVLSRAVRELLLLSKAGHSVWPLGFPTLSPQP
Interleukin-27 subunit beta: RKGPPAALTLPRVQCRASRYPIAVDCSWTLPPAPNSTSPVSFIATYRLGMAARGHSWPCLQQTPTSTSCTITDVQLFSMAPYVLNVTAVHPWGSSSSFVPFITEHIIKPDPPEGVRLSPLAERQLQVQWEPPGSWPFPEIFSLKYWIRYKRQGAARFHRVGPIEATSFILRAVRPRARYYVQVAAQDLTDYGELSDWSLPATATMSLGK
With B2, the “rescue … of the MEK inhibitors” value in the assay on human T cells [4] was “no effect”.
